From US12371454B2, “Cyclic peptide compound having Kras inhibitory action” (priority 2019, dated 2025)
Positions of bridges follow the written chain, without caps; N, C: chain ends. Non-standard residues stand in square brackets, D forms with d. Residues, ends and D or L forms follow the SMILES beside them. *: point of attachment. hPhe(3-Cl-4-CF3) = N[C@@H](CCc1ccc(C(F)(F)F)c(Cl)c1)C(=O)O; hPhe(3-F,4-CF3) = N[C@@H](CCc1ccc(C(F)(F)F)c(F)c1)C(=O)O; NMePhe(4-CF3) = CN[C@@H](Cc1ccc(C(F)(F)F)cc1)C(=O)O; NMePhe(4-Me) = CN[C@@H](Cc1ccc(C)cc1)C(=O)O; NMeGly(cPent) = CN[C@H](C(=O)O)C1CCCC1; NMeCha = CN[C@@H](CC1CCCCC1)C(=O)O; cisHyp = O=C(O)[C@@H]1C[C@H](O)CN1; Hyp = O=C(O)[C@@H]1C[C@@H](O)CN1; NMeChg = CN[C@H](C(=O)O)C1CCCCC1; NMeD = CN[C@@H](CC(=O)O)C(=O)O; NMeL = CN[C@@H](CC(C)C)C(=O)O; dNMeAbu = CC[C@@H](NC)C(=O)O; d(β3hA) = C[C@@H](N)CC(=O)O; NMeA = CN[C@@H](C)C(=O)O; Piperidide = C1CCN(*)CC1; dNMeA = CN[C@H](C)C(=O)O; Ac5c = NC1(C(=O)O)CCCC1; Aze = O=C(O)[C@@H]1CCN1; Ac4c = NC1(C(=O)O)CCC1; Sar = CNCC(=O)O

tested on: Human pancreatic cancer cell line AsPC-1; experiment: Measurement of AsPC-1 cell growth inhibition (AsPC-1 CGI); assay type: cell-based; details: 96 h
Procedure, shortened: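 AsPC-1 cells in 15% FBS RPMI-1640 were exposed to test compound for 96 hours at 37° C, with CellTiter-Glo as endpoint.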

Row | Compound | IC50 [nM]
1 | CC[C@H](C)[C@@H]1NC(=O)[C@H](CC(C)C)N(C)C(=O)C[C@@H](C(=O)N2CCCCC2)N(C)C(=O)[C@H](C2CCCCC2)N(C)C(=O)C2(CCCC2)NC(=O)[C@@H]2C[C@H](O)CN2C(=O)[C@H](CCc2ccc(C(F)(F)F)c(Cl)c2)NC(=O)CN(C)C(=O)[C@H](CC2CCCCC2)N(C)C(=O)CN(C)C(=O)CN(C)C1=O [Compound 1374, (3S,9S,18S,21S,25S,28S,34S,36S)-3-[2-[3-chloro-4-(trifluoromethyl)phenyl]ethyl]-28-cyclohexyl-9-(cyclohexylmethyl)-36-hydroxy-21-isobutyl-7,10,13,16,22,26,29-heptamethyl-18-[(1S)-1-methylpropyl]-25-(piperidine-1-carbonyl)spiro[1,4,7,10,13,16,19,22,26,29,32-undecazabicyclo[32.3.0]heptatriacontane-31,1′-cyclopentane]-2,5,8,11,14,17,20,23,27,30,33-undecone] ([NMeL]I[Sar][Sar][NMeCha][Sar][hPhe(3-Cl-4-CF3)][cisHyp][Ac5c][NMeChg][NMeD]-Piperidide; lactam N-11) | 50 to 100
2 | CC[C@H](C)[C@@H]1NC(=O)[C@H](CC(C)C)N(C)C(=O)C[C@@H](C(=O)N2CCCCC2)N(C)C(=O)[C@H](C2CCCCC2)N(C)C(=O)C2(CCCC2)NC(=O)[C@@H]2C[C@@H](O)CN2C(=O)[C@H](CCc2ccc(C(F)(F)F)c(Cl)c2)NC(=O)CN(C)C(=O)[C@H](CC2CCCCC2)N(C)C(=O)CN(C)C(=O)CN(C)C1=O [Compound 1376, (3S,9S,18S,21S,25S,28S,34S,36R)-3-[2-[3-chloro-4-(trifluoromethyl)phenyl]ethyl]-28-cyclohexyl-9-(cyclohexylmethyl)-36-hydroxy-21-isobutyl-7,10,13,16,22,26,29-heptamethyl-18-[(1S)-1-methylpropyl]-25-(piperidine-1-carbonyl)spiro[1,4,7,10,13,16,19,22,26,29,32-undecazabicyclo[32.3.0]heptatriacontane-31,1′-cyclopentane]-2,5,8,11,14,17,20,23,27,30,33-undecone] ([NMeL]I[Sar][Sar][NMeCha][Sar][hPhe(3-Cl-4-CF3)][Hyp][Ac5c][NMeChg][NMeD]-Piperidide; lactam N-11) | 100 to 500
3 | CC[C@@H]1C(=O)NC2(CCCC2)C(=O)N(C)[C@@H](C2CCCC2)C(=O)N(C)[C@H](C(=O)N2CCCCC2)CC(=O)N(C)[C@@H](CC(C)C)C(=O)N[C@@H]([C@@H](C)CC)C(=O)N(C)CC(=O)N(C)CC(=O)N(C)[C@@H](CC2CCCCC2)C(=O)N(C)CC(=O)N[C@@H](CCc2ccc(C(F)(F)F)c(Cl)c2)C(=O)N1C [Compound 1439] ([NMeL]I[Sar][Sar][NMeCha][Sar][hPhe(3-Cl-4-CF3)][dNMeAbu][Ac5c][NMeGly(cPent)][NMeD]-Piperidide; lactam N-11) | 100 to 500
4 | CC[C@H](C)[C@@H]1NC(=O)[C@H](CC(C)C)N(C)C(=O)C[C@@H](C)NC(=O)[C@H](C2CCCC2)N(C)C(=O)C2(CCCC2)NC(=O)[C@@H]2CCCN2C(=O)[C@H](CCc2ccc(C(F)(F)F)c(Cl)c2)NC(=O)CN(C)C(=O)[C@H](Cc2ccc(C)cc2)N(C)C(=O)CN(C)C(=O)CN(C)C1=O [Compound 1471, (3S,9S,18S,21S,25R,28S,34S)-3-[2-[3-chloro-4-(trifluoromethyl)phenyl]ethyl]-28-cyclopentyl-21-isobutyl-7,10,13,16,22,25,29-heptamethyl-18-[(1S)-1-methylpropyl]-9-(p-tolylmethyl)spiro[1,4,7,10,13,16,19,22,26,29,32-undecazabicyclo[32.3.0]heptatriacontane-31,1′-cyclopentane]-2,5,8,11,14,17,20,23,27,30,33-undecone] (cyclo([Ac5c][NMeGly(cPent)][d(β3hA)][NMeL]I[Sar][Sar][NMePhe(4-Me)][Sar][hPhe(3-Cl-4-CF3)]P)) | 100 to 500
5 | CC[C@H](C)[C@@H]1NC(=O)[C@H](CC(C)C)N(C)C(=O)C[C@@H](C)NC(=O)[C@H](C2CCCC2)N(C)C(=O)C2(CCCC2)NC(=O)[C@@H]2CCCN2C(=O)[C@H](CCc2ccc(C(F)(F)F)c(Cl)c2)NC(=O)CN(C)C(=O)[C@H](Cc2ccc(C(F)(F)F)cc2)N(C)C(=O)[C@@H]2CCN2C(=O)[C@H](C)N(C)C1=O [Compound 1475] (cyclo([Ac5c][NMeGly(cPent)][d(β3hA)][NMeL]I[NMeA][Aze][NMePhe(4-CF3)][Sar][hPhe(3-Cl-4-CF3)]P)) | 50 to 100
6 | CC[C@H](C)[C@@H]1NC(=O)[C@H](CC(C)C)N(C)C(=O)C[C@@H](C)NC(=O)[C@H](C2CCCC2)N(C)C(=O)C2(CCCC2)NC(=O)[C@@H]2CCCN2C(=O)[C@H](CCc2ccc(C(F)(F)F)c(Cl)c2)NC(=O)CN(C)C(=O)[C@H](CC2CCCCC2)N(C)C(=O)[C@@H]2CCN2C(=O)[C@H](C)N(C)C1=O [Compound 1477] (cyclo([Ac5c][NMeGly(cPent)][d(β3hA)][NMeL]I[NMeA][Aze][NMeCha][Sar][hPhe(3-Cl-4-CF3)]P)) | 100 to 500
7 | CC[C@H](C)[C@@H]1NC(=O)[C@H](CC(C)C)N(C)C(=O)C[C@@H](C)NC(=O)[C@H](C2CCCC2)N(C)C(=O)C2(CCCC2)NC(=O)[C@@H]2CCCN2C(=O)[C@H](CCc2ccc(C(F)(F)F)c(Cl)c2)NC(=O)[C@@H](C)N(C)C(=O)[C@H](Cc2ccc(C(F)(F)F)cc2)N(C)C(=O)[C@@H]2CCN2C(=O)[C@H](C)N(C)C1=O [Compound 1482] (cyclo([Ac5c][NMeGly(cPent)][d(β3hA)][NMeL]I[NMeA][Aze][NMePhe(4-CF3)][dNMeA][hPhe(3-Cl-4-CF3)]P)) | 100 to 500
8 | CC[C@H](C)[C@@H]1NC(=O)[C@H](CC(C)C)N(C)C(=O)C[C@@H](C)NC(=O)[C@H](CC(C)C)N(C)C(=O)C2(CCCC2)NC(=O)[C@@H]2C[C@@H](O)CN2C(=O)[C@H](CCc2ccc(C(F)(F)F)c(F)c2)NC(=O)CN(C)C(=O)[C@H](CC2CCCCC2)N(C)C(=O)CN(C)C(=O)CN(C)C1=O [Compound 1483, (3S,9S,18S,21S,25R,28S,34S,36R)-9-(cyclohexylmethyl)-3-[2-[3-fluoro-4-(trifluoromethyl)phenyl]ethyl]-36-hydroxy-21,28-diisobutyl-7,10,13,16,22,25,29-heptamethyl-18-[(1S)-1-methylpropyl]spiro[1,4,7,10,13,16,19,22,26,29,32-undecazabicyclo[32.3.0]heptatriacontane-31,1′-cyclopentane]-2,5,8,11,14,17,20,23,27,30,33-undecone] (cyclo([Ac5c][NMeL][d(β3hA)][NMeL]I[Sar][Sar][NMeCha][Sar][hPhe(3-F,4-CF3)][Hyp])) | > 500
9 | CC[C@H](C)[C@@H]1NC(=O)[C@H](C)N(C)C(=O)C[C@@H](C)NC(=O)[C@H](C2CCCC2)N(C)C(=O)C2(CCCC2)NC(=O)[C@@H]2CCCN2C(=O)[C@H](CCc2ccc(C(F)(F)F)c(Cl)c2)NC(=O)CN(C)C(=O)[C@H](Cc2ccc(C)cc2)N(C)C(=O)CN(C)C(=O)CN(C)C1=O [Compound 1485] (cyclo([Ac5c][NMeGly(cPent)][d(β3hA)][NMeA]I[Sar][Sar][NMePhe(4-Me)][Sar][hPhe(3-Cl-4-CF3)]P)) | 100 to 500
10 | CC[C@H](C)[C@@H]1NC(=O)[C@H](C)N(C)C(=O)C[C@@H](C)NC(=O)[C@H](C2CCCC2)N(C)C(=O)C2(CCC2)NC(=O)[C@@H]2CCCN2C(=O)[C@H](CCc2ccc(C(F)(F)F)c(Cl)c2)NC(=O)CN(C)C(=O)[C@H](Cc2ccc(C(F)(F)F)cc2)N(C)C(=O)CN(C)C(=O)CN(C)C1=O [Compound 1486] (cyclo([Ac4c][NMeGly(cPent)][d(β3hA)][NMeA]I[Sar][Sar][NMePhe(4-CF3)][Sar][hPhe(3-Cl-4-CF3)]P)) | 100 to 500
11 | CC[C@H](C)[C@@H]1NC(=O)[C@H](CC(C)C)N(C)C(=O)C[C@@H](C)NC(=O)[C@H](C2CCCC2)N(C)C(=O)C2(CCCC2)NC(=O)[C@@H]2CCCN2C(=O)[C@H](CCc2ccc(C(F)(F)F)c(Cl)c2)NC(=O)CN(C)C(=O)[C@H](Cc2ccc(C(F)(F)F)cc2)N(C)C(=O)[C@@H]2CCN2C(=O)CN(C)C1=O [Compound 1496] (cyclo([Ac5c][NMeGly(cPent)][d(β3hA)][NMeL]I[Sar][Aze][NMePhe(4-CF3)][Sar][hPhe(3-Cl-4-CF3)]P)) | 50 to 100
12 | CC[C@H](C)[C@@H]1NC(=O)[C@H](C)N(C)C(=O)C[C@@H](C)NC(=O)[C@H](C2CCCC2)N(C)C(=O)C2(CCCC2)NC(=O)[C@@H]2CCCN2C(=O)[C@H](CCc2ccc(C(F)(F)F)c(Cl)c2)NC(=O)[C@@H](C)N(C)C(=O)[C@H](Cc2ccc(C(F)(F)F)cc2)N(C)C(=O)[C@@H]2CCN2C(=O)[C@H](C)N(C)C1=O [Compound 1497] (cyclo([Ac5c][NMeGly(cPent)][d(β3hA)][NMeA]I[NMeA][Aze][NMePhe(4-CF3)][dNMeA][hPhe(3-Cl-4-CF3)]P)) | 100 to 500
13 | CC[C@H](C)[C@@H]1NC(=O)[C@H](CC(C)C)N(C)C(=O)C[C@@H](C)NC(=O)[C@H](C2CCCC2)N(C)C(=O)C2(CCCC2)NC(=O)[C@@H]2CCCN2C(=O)[C@H](CCc2ccc(C(F)(F)F)c(Cl)c2)NC(=O)CN(C)C(=O)[C@H](CC2CCCCC2)N(C)C(=O)[C@@H]2CCN2C(=O)CN(C)C1=O [Compound 1499] (cyclo([Ac5c][NMeGly(cPent)][d(β3hA)][NMeL]I[Sar][Aze][NMeCha][Sar][hPhe(3-Cl-4-CF3)]P)) | 100 to 500
14 | CC[C@H](C)[C@@H]1NC(=O)[C@H](CC(C)C)N(C)C(=O)C[C@@H](C)NC(=O)[C@H](C2CCCC2)N(C)C(=O)C2(CCCC2)NC(=O)[C@@H]2CCCN2C(=O)[C@H](CCc2ccc(C(F)(F)F)c(Cl)c2)NC(=O)[C@@H](C)N(C)C(=O)[C@H](Cc2ccc(C)cc2)N(C)C(=O)[C@@H]2CCN2C(=O)[C@H](C)N(C)C1=O [Compound 1504] (cyclo([Ac5c][NMeGly(cPent)][d(β3hA)][NMeL]I[NMeA][Aze][NMePhe(4-Me)][dNMeA][hPhe(3-Cl-4-CF3)]P)) | 100 to 500
15 | CC[C@H](C)[C@@H]1NC(=O)[C@H](C)N(C)C(=O)C[C@@H](C)NC(=O)[C@H](C2CCCC2)N(C)C(=O)C2(CCCC2)NC(=O)[C@@H]2CCCN2C(=O)[C@H](CCc2ccc(C(F)(F)F)c(Cl)c2)NC(=O)CN(C)C(=O)[C@H](Cc2ccc(C(F)(F)F)cc2)N(C)C(=O)[C@@H]2CCN2C(=O)[C@H](C)N(C)C1=O [Compound 1512] (cyclo([Ac5c][NMeGly(cPent)][d(β3hA)][NMeA]I[NMeA][Aze][NMePhe(4-CF3)][Sar][hPhe(3-Cl-4-CF3)]P)) | 50 to 100
